# Measured values from patent US20250074871A1, “PHENETHYLAMINES AND METHODS OF PREPARATION THEREOF” (priority 2022, published 2025).
# “And” between values parts separate entries of the source, which are not always exact repeats. Equal entries are not always repeated. Where two headings read alike, the source gives them in different places.
# Assays:
# 5-HT1D = 5-HT1D (Homo sapiens, UniProt P28221); assay: 5-HT receptor activity panel (Table 3); type: cell-based; settings: Table 3
# 5-HT2C receptor = biological target: T1, 5-HT2C receptor (Homo sapiens, UniProt P28335); assay: cell-based; type: cell-based; settings: for 5-HT2C BRET Eff %: normalized to % 5-HT stimulation
# T1 construct: expressed in transfected cells; host or cells: HEK293T
# T1 sequence (P28335 33-458): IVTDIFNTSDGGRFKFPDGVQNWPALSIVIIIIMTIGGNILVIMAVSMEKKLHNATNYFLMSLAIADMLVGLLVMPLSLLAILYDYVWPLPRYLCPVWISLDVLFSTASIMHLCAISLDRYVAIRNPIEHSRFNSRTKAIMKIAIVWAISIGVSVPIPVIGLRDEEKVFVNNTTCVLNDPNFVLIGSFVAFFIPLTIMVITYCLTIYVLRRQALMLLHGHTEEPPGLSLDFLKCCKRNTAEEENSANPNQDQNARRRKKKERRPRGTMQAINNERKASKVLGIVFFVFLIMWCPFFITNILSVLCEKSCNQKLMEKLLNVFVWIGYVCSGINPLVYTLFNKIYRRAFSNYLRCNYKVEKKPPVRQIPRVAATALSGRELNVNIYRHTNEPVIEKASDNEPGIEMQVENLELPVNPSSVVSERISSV
# hepatocyte = assay: in vitro hepatocyte clearance, dog; type: in vitro ADME; settings: Dog
# Protocol: (§1) Additional experimentation was performed on compound 109. Table 6 summarizes, among other things, the anticipated hepatic clearance of compound 109 in various species, as specified in Table 6 and as determined by calculating the in vitro hepatocyte clearance over time and scaling such rate with such species' hepatocyte count and the anticipated liver blood flow rate in such species.
# [1] = in vitro hepatocyte clearance, dog; type: in vitro ADME; settings: for hepatocyte CLint / half-life: Dog hepatocytes; for hepatocyte CLint: read-out: In vitro Clint (μL/min/10^6 cells); for half-life: read-out: In vitro T1/2; for CLint scaled: dog, hepatocytes, read-out: Scale-up Clint
# Protocol: as §1
# 5-HT6 = 5-HT6 (Homo sapiens, UniProt P50406); assay: 5-HT receptor activity panel (Table 3); type: cell-based
# 5-HT5A = 5-HT5A (Homo sapiens, UniProt P47898); assay: 5-HT receptor activity panel (Table 3); type: cell-based; settings: Table 3
# [2] = in vitro hepatocyte clearance, monkey; type: in vitro ADME; settings: Monkey hepatocytes; for hepatocyte CLint: read-out: In vitro Clint (μL/min/10^6 cells); for half-life: read-out: In vitro T1/2; for CLint scaled: read-out: Scale-up Clint
# Protocol: as §1
# 5-HT1A = biological target: T2, 5-HT1A (Homo sapiens, UniProt P08908); assay: 5-HT receptor activity panel (Table 3); type: cell-based; settings: Table 3
# T2 sequence (P08908 1-422): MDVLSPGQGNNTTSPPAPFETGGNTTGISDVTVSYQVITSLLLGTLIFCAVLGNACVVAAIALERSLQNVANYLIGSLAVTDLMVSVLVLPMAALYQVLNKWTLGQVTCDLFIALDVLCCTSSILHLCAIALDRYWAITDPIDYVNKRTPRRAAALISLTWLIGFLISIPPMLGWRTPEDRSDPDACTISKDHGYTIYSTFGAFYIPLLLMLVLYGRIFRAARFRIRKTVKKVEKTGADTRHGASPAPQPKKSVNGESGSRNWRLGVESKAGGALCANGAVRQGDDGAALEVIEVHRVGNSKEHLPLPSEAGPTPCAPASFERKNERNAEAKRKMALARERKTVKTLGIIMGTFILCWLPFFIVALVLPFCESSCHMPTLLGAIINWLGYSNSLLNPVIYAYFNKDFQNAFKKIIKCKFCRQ
# healthy rat subjects = assay: locomotor activity test in healthy rats; type: in vivo; settings: intraperitoneal dose of up to 30 mg/kg
# Protocol: (§2) Additional experimentation was also done on compound 109. Namely, an intraperitoneal dose of up to 30 mg/kg of compound 109 and various reference compounds were delivered into healthy rat subjects and surgery induced abnormal rat subjects (olfactory bulbectomized rats). […] Without being bound by theory, it is believed that these observations are a result of long lasting neuroplasticity effects of compound 109 on surgery induced abnormal rat subjects. FIG. 5 summarizes the results of this experiment. Using psilocybin as a comparative psychedelic, the results of this experiment support the notion that compound 109 provides sustainable acute antidepressant effects. Note that “VEH” refers to vehicle, and “PSIL” refers to psilocybin, in FIG. 5.
# [3] = test system: olfactory bulbectomized rats; assay: locomotor/behavioral activity in olfactory bulbectomized rats; type: in vivo, rat; settings: single intraperitoneal dose, FIG. 5
# Protocol: as §2
# [4] = test system: α 1a, α 2a, Kappa (KOP), μ (MOP), 5-HT transporter (SERT); assay: follow up functional assays on SafetyScreen44 hits
# Protocol: Various compounds disclosed herein were subjected to an in vitro SafetyScreen44™ panel for identifying off-target activity. Compounds of interest that are identified in the panel are then tested in follow up functional assays to identify if such compounds have a significant off-target risk. […] It is predicted that other compounds share similar characteristics with compound 109 and also lack of the off-target activity.
# [5] = Table 2, at least three replicate trials, read-out: 5-HT2C BRET EC50
# [6] = Table 3 panel, read-out: 5-HT2C EC50
# Sequence of 5-HT5A (P47898 whole entry, species assumed): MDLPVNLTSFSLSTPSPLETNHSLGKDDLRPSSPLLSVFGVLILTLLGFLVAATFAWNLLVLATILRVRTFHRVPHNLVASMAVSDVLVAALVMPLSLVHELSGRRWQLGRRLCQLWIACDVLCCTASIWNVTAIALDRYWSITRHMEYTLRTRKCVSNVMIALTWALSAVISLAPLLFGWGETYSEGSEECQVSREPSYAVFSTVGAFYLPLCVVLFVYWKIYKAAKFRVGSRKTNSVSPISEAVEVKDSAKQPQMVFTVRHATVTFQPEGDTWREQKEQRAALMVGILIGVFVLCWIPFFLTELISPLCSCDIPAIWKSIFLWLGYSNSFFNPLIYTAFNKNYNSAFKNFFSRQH
# Sequence of 5-HT1D (P28221 whole entry, species assumed): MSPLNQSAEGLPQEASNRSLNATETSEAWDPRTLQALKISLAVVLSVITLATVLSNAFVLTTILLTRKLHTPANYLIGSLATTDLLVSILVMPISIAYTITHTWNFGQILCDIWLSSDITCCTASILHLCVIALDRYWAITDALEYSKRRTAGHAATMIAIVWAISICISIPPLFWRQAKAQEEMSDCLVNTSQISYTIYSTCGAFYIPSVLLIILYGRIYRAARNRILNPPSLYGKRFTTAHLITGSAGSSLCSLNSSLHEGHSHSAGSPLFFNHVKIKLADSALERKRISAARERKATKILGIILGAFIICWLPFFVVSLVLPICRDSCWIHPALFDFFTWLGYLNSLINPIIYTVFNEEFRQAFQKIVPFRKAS
# Sequence of 5-HT6 (P50406 whole entry, species assumed): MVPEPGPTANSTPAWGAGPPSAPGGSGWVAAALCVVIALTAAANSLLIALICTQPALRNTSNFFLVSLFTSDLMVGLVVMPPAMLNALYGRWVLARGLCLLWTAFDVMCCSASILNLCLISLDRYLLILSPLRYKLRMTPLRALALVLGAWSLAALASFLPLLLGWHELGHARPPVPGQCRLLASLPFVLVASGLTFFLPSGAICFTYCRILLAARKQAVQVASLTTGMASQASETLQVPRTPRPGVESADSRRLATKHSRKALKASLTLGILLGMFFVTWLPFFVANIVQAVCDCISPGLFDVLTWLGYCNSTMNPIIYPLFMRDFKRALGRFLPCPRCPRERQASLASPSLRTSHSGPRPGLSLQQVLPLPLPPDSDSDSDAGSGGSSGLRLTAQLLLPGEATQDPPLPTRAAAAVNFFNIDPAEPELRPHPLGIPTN
Compound,EC50 (5-HT2C receptor; [5]),5-HT2C BRET Eff % (5-HT2C receptor; Table 2),"5-HT2C Eff, % (5-HT2C receptor; Table 3 panel)",EC50 (5-HT2C receptor; [6]),Predicted hepatic CL (hepatocyte),hepatocyte CLint [1],half-life [1],CLint scaled [1],"5-HT6 Eff, % (5-HT6; Table 3)",hepatocyte CLint [2],half-life [2],CLint scaled [2],also measured
COc1cc(C(F)(F)F)ccc1CCNCc1ccccc1O [Cpd #93],1.1 nM and 1.3 nM,105% and 103%,99%,1.5 nM,30.49 mL/min/kg,337 µL/min/1e6 cells,4.11 min,2320 mL/min/kg,−12%,467 µL/min/1e6 cells,2.97 min,1680 mL/min/kg,"5-HT1D EC50, nM (5-HT1D): Not active; EC50 (5-HT6): 0.6 nM; 5-HT5A EC50, nM (5-HT5A): Not active; 5-HT1A EC50, nM (5-HT1A): Not active"
CSc1ccccc1CNCCc1ccc(C#N)cc1O [Cpd #109],253 nM,114%,110%,225 nM,30.22 mL/min/kg,199 µL/min/1e6 cells,6.96 min,1370 mL/min/kg,18%,499 µL/min/1e6 cells,2.78 min,1800 mL/min/kg,"5-HT1D Eff, % (5-HT1D): 6%; EC50 (5-HT1D; read-out: 5-HT1D EC50): 379 nM; Hepatic Extraction Ratio (E) (hepatocyte): 0.98; effect on normal locomotor activity (healthy rat subjects): no suggestion that an intraperitoneal dose of up to 30 mg/kg of such compound affects the normal locomotor activity; EC50 (5-HT6; Table 3, read-out: 5-HT6 EC50): 5390 nM; 5-HT5A Eff, % (5-HT5A): −133%; EC50 (5-HT5A; read-out: 5-HT5A EC50): 12300 nM; inhibition of abnormal behavioral activity [3]: significant and long lasting inhibition of abnormal behavioral activity; Follow up studies (off-target activity) [4]: No significant; Follow up studies (off-target activity) ([4]; listed as compound 109): does not possess significant off-target activity; 5-HT1A Eff, % (5-HT1A): 3%; EC50 (5-HT1A; read-out: 5-HT1A EC50): 4270 nM"
